We go through 61 compounds from patent US11066409B2, “Bicyclic nitrogen-containing heterocyclic derivatives and pharmaceutical composition comprising the same” (Shionogi & Co., Ltd., priority 2016, dated 2021).

Sequence of human P2X7 receptor (Q99572 whole entry R270H): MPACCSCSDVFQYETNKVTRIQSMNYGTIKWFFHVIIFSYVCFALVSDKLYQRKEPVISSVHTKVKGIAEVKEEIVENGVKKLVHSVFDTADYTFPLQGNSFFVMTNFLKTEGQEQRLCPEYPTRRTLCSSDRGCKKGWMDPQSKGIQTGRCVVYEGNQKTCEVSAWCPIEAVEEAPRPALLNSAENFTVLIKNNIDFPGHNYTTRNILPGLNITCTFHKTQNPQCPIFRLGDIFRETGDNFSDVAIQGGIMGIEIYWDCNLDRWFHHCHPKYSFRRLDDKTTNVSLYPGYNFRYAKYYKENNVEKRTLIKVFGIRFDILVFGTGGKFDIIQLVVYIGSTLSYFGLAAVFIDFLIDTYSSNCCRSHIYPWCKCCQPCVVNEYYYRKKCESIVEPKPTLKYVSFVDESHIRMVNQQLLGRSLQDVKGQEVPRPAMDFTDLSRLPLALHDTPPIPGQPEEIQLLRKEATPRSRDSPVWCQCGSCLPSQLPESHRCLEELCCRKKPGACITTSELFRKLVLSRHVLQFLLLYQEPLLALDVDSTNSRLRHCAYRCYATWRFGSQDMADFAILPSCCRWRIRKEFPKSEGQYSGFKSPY

For one test, the target named is human P2X7 receptor (Homo sapiens (Human), UniProt Q99572, R270H). As to the kind of experiment: Evaluation of a human P2X7 receptor inhibitory activity (Yo-Pro uptake, BzATP stimulation, FLIPR TETRA). Type of test: cell-based. The conditions noted are these: 1321N1 cells stably expressing human P2X7 receptor, Yo-Pro fluorescence. As for the experimental part: Evaluation of a human P2X7 receptor inhibitory activity Stably expressing cell line (1321N1 cell transfected with the human P2X7 receptor gene (GenBank accession number NM_002562.5 including T606C and G952A SNP)) was used. The cells were seeded in a 384-well microtiter plate at a concentration of 8000 cells/well and cultured in the medium (10% fetal bovine serum, 25 mM HEPES, 1% penicillin and streptomycin in DMEM) for one day at 37° C. under 5% carbon dioxide atmosphere. After replacing with 20 μL of the HBSS buffer (20 mM HEPES, 55.6 mM D-glucose, 1× HBSS(−), pH7.4-7.5), 15 μL of 17.3 μM Yo-Pro solution in the HBSS buffer was added. The plate was placed in high-throughput cellular screening system FLIPR TETRA (Molecullar Devices, LLC.) and 15 μL of 130 μM BzATP solution in the HBSS buffer was added. Measurement of fluorescence intensity by FLIPR TETRA was started. After eight minutes, 15 μL of DMSO solutions containing different concentrations of the compound of the present invention as prepared by dilution with the HBSS buffer were dispensed to each well through the built-in automatic dispenser, and the measurement of fluorescence intensity was continued for 20 minutes. The maximum fluorescence intensity without the compound of the present invention is calculated as 0% inhibition and the maximum fluorescence intensity when the reference compound was added is calculated as 100% inhibition. Changing values of fluorescence intensity by the compound of the present invention were calculated by difference between maximum and minimum fluorescence intensity for 20 minutes. Inhibition ratios (%) were calculated from the following equation:
[formula] IC50 was calculated using logistic approximation.
As for IC50 value, value to below 10 nmol/L is represented as “A”, value from 10 nmol/L to below 100 nmol/L is represented as “B”, value from 100 nmol/L to below 500 nmol/L is represented as “C”, and value from 500 nmol/L to below 1 μmol/L is represented as “D”.
With `Cc1nc2cc(C)c(Nc3nc(=O)cc4n3C(c3ccccc3)CN4)cc2s1` (stereo not shown) [Compound I-0100], the IC50 came out at 12 nM.
Consider `Cc1cc(C)c(Nc2nc(=O)cc3n2C(c2ccccc2)CN3C)cc1C` (stereo not shown) [Compound I-0106], for which the IC50 worked out at 11 nM.
The same measure, in the same setting: under `CCN1C(=O)N=C(Nc2cc(C)c(C)cc2C)N2C1=NCC2c1ccccc1` (stereo not shown) [Compound I-0107] stands 25 nM; under `COc1cc(NC2=NC(=O)N(C)C3=NCC(c4ccc(F)cc4)N23)c(C)cc1F` (stereo not shown) [Compound I-0150], 18 nM; under `COc1ccc(NC2=NC(=O)N(C)C3=NCC(c4ccc(F)cc4)N23)c(C)c1F` (stereo not shown) [Compound I-0151], 14 nM.

Staying with this test, now noted: 1321N1 cells stably expressing human P2X7 receptor, Yo-Pro fluorescence, class symbols.
On to `COc1nc(C)c(Nc2nc(=O)cc3n2C(c2ccc(F)c(Cl)c2)CC3)cc1F` (stereo not shown) [Compound I-0094], for which the IC50 is 10 to 100 nM.
The same measure, in the same setting: under `COc1ccc(/N=c2\[nH]c(=O)c(F)c3n2C(c2cc(F)cc(F)c2)CC3)c(C)n1` (stereo not shown) [Compound I-0095] stands 10 to 100 nM.
On the same count and under the same terms, under `CCOc1ccc(Nc2nc(=O)c(F)c3n2C(c2cc(F)cc(F)c2)CC3)c(CC)n1` (stereo not shown) [Compound I-0096] stands 10 to 100 nM; under `COc1ccc(Nc2nc(=O)c(F)c3n2C(c2cc(F)cc(F)c2)CC3)c(C)c1` (stereo not shown) [Compound I-0097], less than 10 nM; under `COc1ccc(C)c(Nc2nc(=O)c(F)c3n2C(c2cc(F)cc(F)c2)CC3)c1` (stereo not shown) [Compound I-0098], less than 10 nM.
On to `Cc1nc2cc(C)c(Nc3nc(=O)c(F)c4n3C(c3cc(F)cc(F)c3)CC4)cc2s1` (stereo not shown) [Compound I-0101], for which the IC50 lay in the range of 10 to 100 nM.
On the same count and under the same terms, under `Cc1nc2cc(C)c(Nc3nc(=O)cc4n3C(c3ccccc3)CN4C)cc2s1` (stereo not shown) [Compound I-0103] stands 10 to 100 nM; under `COc1ccc(Nc2nc(=O)cc3n2C(c2ccccc2)CN3C)c(C)c1` (stereo not shown) [Compound I-0104], 10 to 100 nM; under `COc1ccc(C)c(Nc2nc(=O)cc3n2C(c2ccccc2)CN3C)c1` (stereo not shown) [Compound I-0105], 10 to 100 nM.
Still for that read-out and setting: under `COc1ccc(Nc2nc(=O)c(F)c3n2C(c2cc(F)cc(F)c2)CC3)c(C)c1F` (stereo not shown) [Compound I-0108] stands 10 to 100 nM; under `CCN1C(=O)N=C(Nc2cc(C)c(C)cc2C)N2C1=NCC2c1ccc(F)cc1` (stereo not shown) [Compound I-0109], 10 to 100 nM; under `COc1ccc(Nc2nc(=O)cc3n2C(c2ccccc2)CN3C)c(C)c1` (stereo not shown) [Compound I-0110], less than 10 nM.
`CCN1C(=O)N=C(Nc2cc(C)c(C)cc2C)N2C1=NCC2c1ccccc1` (stereo not shown) [Compound I-0111] came in with a concentration for half-maximal inhibition (IC50) of less than 10 nM.
On the same count and under the same terms, under `CCN1C(=O)N=C(Nc2ccc(C)nc2C)N2C1=NCC2c1ccc(F)cc1` (stereo not shown) [Compound I-0112] stands 500 to 1000 nM.
As for `CN1C(=O)N=C(Nc2cc(C3CC3)nn2C)N2C1=NCC2c1ccc(F)cc1` (stereo not shown) [Compound I-0113], the IC50 fell in the range of 500 to 1000 nM.
Same read-out and setting: the figure for `Cc1ccc(NC2=NC(=O)N(C)C3=NCC(c4cc(F)cc(F)c4)N23)c(C)n1` (stereo not shown) [Compound I-0114] is 100 to 500 nM; for `Cc1ccc(NC2=NC(=O)N(C)C3=NCC(c4ccc(F)c(F)c4)N23)c(C)n1` (stereo not shown) [Compound I-0115] it is 100 to 500 nM.
Same read-out and setting: the figure for `COc1cc(NC2=NC(=O)N(C)C3=NCC(c4ccc(F)c(F)c4)N23)c(C)nc1OC` (stereo not shown) [Compound I-0116] is 100 to 500 nM.
In the case of `CCN1C(=O)N=C(Nc2ccc(OC)nc2C)N2C1=NCC2c1ccc(F)cc1` (stereo not shown) [Compound I-0117], the IC50 was 100 to 500 nM.
The same measure, in the same setting: the figure for `CCN1C(=O)N=C(Nc2cc(OC)c(OC)nc2C)N2C1=NCC2c1ccc(F)cc1` (stereo not shown) [Compound I-0118] is 100 to 500 nM.
Same read-out and setting: the figure for `COc1ccc(NC2=NC(=O)N(C)C3=NCC(c4ccc(F)cc4)N23)c(C)n1` (stereo not shown) [Compound I-0119] is 10 to 100 nM; for `Cc1ccc(NC2=NC(=O)N(C)C3=NCC(c4ccc(F)cc4)N23)c(C)n1` (stereo not shown) [Compound I-0120] it is 100 to 500 nM.
Same read-out and setting: the figure for `COc1cc(C)c(NC2=NC(=O)N(C)C3=NCC(c4ccc(F)cc4)N23)cc1OC` (stereo not shown) [Compound I-0121] is 10 to 100 nM; for `COc1ccc(NC2=NC(=O)N(C)C3=NCC(c4cc(F)cc(F)c4)N23)c(C)c1` (stereo not shown) [Compound I-0122] it is 10 to 100 nM.
`COc1cnc(C)c(Nc2nc(=O)c(F)c3n2C(c2cc(F)cc(F)c2)CC3)c1` (stereo not shown) [Compound I-0123] registered an IC50 of 10 to 100 nM.
Consider `COc1ccc(C)c(NC2=NC(=O)N(C)C3=NCC(c4ccc(F)c(F)c4)N23)c1` (stereo not shown) [Compound I-0124], for which the IC50 lay within 10 to 100 nM.
Still for that read-out and setting: the figure for `COc1ccc(NC2=NC(=O)N(C)C3=NCC(c4ccc(F)c(F)c4)N23)c(C)c1` (stereo not shown) [Compound I-0125] is 10 to 100 nM; for `COc1cc(C)c(NC2=NC(=O)N(C)C3=NCC(c4ccc(F)c(F)c4)N23)cc1OC` (stereo not shown) [Compound I-0126] it is 10 to 100 nM.
On the same count and under the same terms, under `COc1ccc(NC2=NC(=O)N(C)C3=NCC(c4ccc(F)c(F)c4)N23)c(C)n1` (stereo not shown) [Compound I-0127] stands 10 to 100 nM.
Still for that read-out and setting: under `COc1cc(Nc2nc(=O)cc3n2C(c2cc(F)cc(F)c2)CN3)c(C)cc1F` (stereo not shown) [Compound I-0128] stands 10 to 100 nM; under `COc1ccc(C)c(NC2=NC(=O)N(C)C3=NCC(c4ccc(F)cc4)N23)c1` (stereo not shown) [Compound I-0129], 10 to 100 nM.
In the case of `COc1ccc(NC2=NC(=O)N(C)C3=NCC(c4ccc(F)cc4)N23)c(C)c1` (stereo not shown) [Compound I-0130], the IC50 fell in the range of 10 to 100 nM.
Consider `COc1ccc(C)c(NC2=NC(=O)N(C)C3=NCC(c4cc(F)cc(F)c4)N23)c1` (stereo not shown) [Compound I-0131], for which the IC50 was 10 to 100 nM.
`COc1cc(C)c(NC2=NC(=O)N(C)C3=NCC(c4cc(F)cc(F)c4)N23)cc1OC` (stereo not shown) [Compound I-0132] showed a concentration for half-maximal inhibition (IC50) of 10 to 100 nM.
`COc1cc(NC2=NC(=O)N(C)C3=NCC(c4cc(F)cc(F)c4)N23)c(C)nc1OC` (stereo not shown) [Compound I-0133] yielded an IC50 of 10 to 100 nM.
On the same count and under the same terms, under `COc1cc(Nc2nc(=O)cc3n2C(c2cc(F)cc(F)c2)CN3)c(C)cc1F` (stereo not shown) [Compound I-0134] stands less than 10 nM.
Same read-out and setting: the figure for `COc1nc(C)c(Nc2nc(=O)c(F)c3n2C(c2cc(F)cc(F)c2)CC3)cc1C` (stereo not shown) [Compound I-0136] is 10 to 100 nM; for `COc1ccc(NC2=NC(=O)N(C)C3=NCC(c4cc(F)cc(F)c4)N23)c(C)c1F` (stereo not shown) [Compound I-0137] it is 10 to 100 nM; for `CCN1C(=O)N=C(Nc2cc(OC)c(OC)cc2C)N2C1=NCC2c1ccc(F)cc1` (stereo not shown) [Compound I-0138] it is 10 to 100 nM.
Still for that read-out and setting: the figure for `CCN1C(=O)N=C(Nc2cc(OC)ccc2C)N2C1=NCC2c1ccc(F)cc1` (stereo not shown) [Compound I-0139] is 10 to 100 nM.
For `CCN1C(=O)N=C(Nc2ccc(OC)cc2C)N2C1=NCC2c1ccc(F)cc1` (stereo not shown) [Compound I-0140], the IC50 lay in the range of 10 to 100 nM.
`COc1nc(C)c(Nc2nc(=O)c(F)c3n2C(c2cc(F)cc(F)c2)CC3)cc1F` (stereo not shown) [Compound I-0141]: the IC50 fell in the range of 10 to 100 nM.
Still for that read-out and setting: the figure for `COc1ccc(NC2=NC(=O)N(C)C3=NCC(c4cc(F)c(F)c(F)c4)N23)c(C)n1` (stereo not shown) [Compound I-0143] is 10 to 100 nM; for `COc1ccc(NC2=NC(=O)N(C)C3=NCC(c4cc(F)cc(F)c4)N23)c(C)n1` (stereo not shown) [Compound I-0144] it is 10 to 100 nM.
The same measure, in the same setting: the figure for `Cc1ccc(C#N)cc1NC1=NC(=O)N(C)C2=NCC(c3cc(F)cc(F)c3)N12` (stereo not shown) [Compound I-0146] is 10 to 100 nM; for `COc1cc(NC2=NC(=O)N(C)C3=NCC(c4cc(F)cc(F)c4)N23)c(C)cc1F` (stereo not shown) [Compound I-0148] it is 10 to 100 nM; for `COc1cc(C)c(Nc2nc(=O)c(F)c3n2C(c2ccc(F)cc2)CN3C)cc1OC` (stereo not shown) [Compound I-0152] it is 10 to 100 nM.
Still for that read-out and setting: under `COc1cc(C)c(Nc2nc(=O)nc3n2C(c2cc(F)c(F)c(F)c2)CN3)cc1OC` (stereo not shown) [Compound I-0153] stands 10 to 100 nM; under `CCc1nc(OC)ccc1NC1=NC(=O)N(C)C2=NCC(c3cc(F)cc(F)c3)N12` (stereo not shown) [Compound I-0155], 10 to 100 nM; under `Cc1nc2cc(C)c(NC3=NC(=O)N(C)C4=NCC(c5cc(F)c(F)c(F)c5)N34)cc2s1` (stereo not shown) [Compound I-0156], 10 to 100 nM.
Turning to `CCOc1cc(NC2=NC(=O)N(C)C3=NCC(c4cc(F)c(F)c(F)c4)N23)c(C)cc1F` (stereo not shown) [Compound I-0157], the IC50 fell in the range of 10 to 100 nM.
Still for that read-out and setting: the figure for `COc1nc(C)c(NC2=NC(=O)N(C)C3=NCC(c4cc(F)c(F)c(F)c4)N23)cc1C` (stereo not shown) [Compound I-0159] is 10 to 100 nM; for `COc1ccc(Nc2nc(=O)c(F)c3n2C(c2ccc(F)cc2)CN3C)c(C)n1` (stereo not shown) [Compound I-0160] it is 10 to 100 nM.
Same read-out and setting: under `COc1ccc(Nc2nc(=O)c(F)c3n2C(c2cc(F)c(F)c(F)c2)CN3)c(C)n1` (stereo not shown) [Compound I-0163] stands 10 to 100 nM.
Still for that read-out and setting: under `CCOc1ccc(NC2=NC(=O)N(C)C3=NCC(c4cc(F)c(F)c(F)c4)N23)c(CC)n1` (stereo not shown) [Compound I-0165] stands 10 to 100 nM; under `COc1ccc(C)c(Nc2nc(=O)c(F)c3n2C(c2cc(F)c(F)c(F)c2)CN3)c1` (stereo not shown) [Compound I-0166], 10 to 100 nM.

One may read the IC50 as the concentration that gives 50% inhibition.
